Our source for the IC50, AUC(0-t) and Cmax values is ChEMBL document CHEMBL5154866 (J Med Chem, 2022).

Data set [1] deals with High affinity nerve growth factor receptor (Homo sapiens, UniProt P04629). Description: Inhibition of N-terminal hexahistidine tagged TRKA (485 to 795 residues) (unknown origin) expressed in Sf9 cells using Ser/Thr 06 peptide as substrate incubated for 1 hr in presence of 400 uM ATP by FRET based Z'-Lyte assay.
The target in data set [2] is High affinity nerve growth factor receptor (Homo sapiens, UniProt P04629, G667C). Description: Inhibition of TRKA G667C mutant (unknown origin) using Ser/Thr 06 peptide as substrate incubated for 1 hr in presence of 400 uM ATP by FRET based Z'-Lyte assay.
High affinity nerve growth factor receptor (Homo sapiens, UniProt P04629, G667C), sequence (P04629 33-796 G667C limits assumed): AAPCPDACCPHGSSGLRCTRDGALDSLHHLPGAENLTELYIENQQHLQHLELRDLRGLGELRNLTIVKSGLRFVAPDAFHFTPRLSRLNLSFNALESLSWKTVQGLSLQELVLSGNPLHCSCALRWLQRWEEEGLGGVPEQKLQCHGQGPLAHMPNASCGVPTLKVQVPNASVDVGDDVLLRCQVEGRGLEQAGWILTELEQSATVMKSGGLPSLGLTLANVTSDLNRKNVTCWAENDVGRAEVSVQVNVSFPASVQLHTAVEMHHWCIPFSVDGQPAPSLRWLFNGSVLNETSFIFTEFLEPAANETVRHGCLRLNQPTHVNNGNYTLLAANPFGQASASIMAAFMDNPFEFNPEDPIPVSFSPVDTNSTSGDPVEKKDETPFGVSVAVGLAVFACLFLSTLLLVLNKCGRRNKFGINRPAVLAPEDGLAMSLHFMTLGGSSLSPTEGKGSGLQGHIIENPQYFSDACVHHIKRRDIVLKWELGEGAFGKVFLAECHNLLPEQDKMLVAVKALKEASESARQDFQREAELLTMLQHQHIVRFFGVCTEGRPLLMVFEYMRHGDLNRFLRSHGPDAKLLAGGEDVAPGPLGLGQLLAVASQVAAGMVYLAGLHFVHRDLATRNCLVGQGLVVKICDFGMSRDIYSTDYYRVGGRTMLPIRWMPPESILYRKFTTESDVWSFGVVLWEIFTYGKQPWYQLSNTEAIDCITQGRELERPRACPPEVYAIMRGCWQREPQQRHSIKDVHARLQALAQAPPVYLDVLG
In data set [3] the target is High affinity nerve growth factor receptor (Homo sapiens, UniProt P04629, G595R). Nature of the data set: Inhibition of TRKA G595R mutant (unknown origin) by HTRF assay. For orientation: In TR-FRET formats the signal depends on donor and acceptor labels being close together.
High affinity nerve growth factor receptor (Homo sapiens, UniProt P04629, G595R), sequence (P04629 33-796 G595R limits assumed): as the sequence (P04629 33-796 G667C limits assumed) above, with G563R, C635G counted along it
Data set [4] has as its system BaF3. Nature of the data set: Antiproliferative activity against mouse BaF3 cells expressing CD74 fused TRKA assessed as cell growth inhibition incubated for 3 days by CCK8 assay. Conditions: BaF3, 72 h. On the technique in general: Formazan colour is commonly taken as a measure of viable cells.
The test system of data set [5] is BaF3. Nature of the data set: Antiproliferative activity against mouse BaF3 cells expressing ETV6 fused TRKC assessed as cell growth inhibition incubated for 3 days by CCK8 assay. Conditions: BaF3, 72 h.
For data set [6], the system named is BaF3. Nature of the data set: cells. Particulars: Mus musculus, BaF3, 72 h.
In data set [7] the test system is BaF3. Nature of the data set: cells. Conditions: Mus musculus, BaF3, 72 h. This is another data set of the same source.
The target in data set [8] is Epithelial discoidin domain-containing receptor 1 (Homo sapiens, UniProt Q08345). Nature of the data set: Inhibition of human wild type partial length DDR1(R565 to V876 residue) expressed in bacterial expression system by Kinomescan method.
Epithelial discoidin domain-containing receptor 1, sequence (Q08345 whole entry, the tested form may be a part): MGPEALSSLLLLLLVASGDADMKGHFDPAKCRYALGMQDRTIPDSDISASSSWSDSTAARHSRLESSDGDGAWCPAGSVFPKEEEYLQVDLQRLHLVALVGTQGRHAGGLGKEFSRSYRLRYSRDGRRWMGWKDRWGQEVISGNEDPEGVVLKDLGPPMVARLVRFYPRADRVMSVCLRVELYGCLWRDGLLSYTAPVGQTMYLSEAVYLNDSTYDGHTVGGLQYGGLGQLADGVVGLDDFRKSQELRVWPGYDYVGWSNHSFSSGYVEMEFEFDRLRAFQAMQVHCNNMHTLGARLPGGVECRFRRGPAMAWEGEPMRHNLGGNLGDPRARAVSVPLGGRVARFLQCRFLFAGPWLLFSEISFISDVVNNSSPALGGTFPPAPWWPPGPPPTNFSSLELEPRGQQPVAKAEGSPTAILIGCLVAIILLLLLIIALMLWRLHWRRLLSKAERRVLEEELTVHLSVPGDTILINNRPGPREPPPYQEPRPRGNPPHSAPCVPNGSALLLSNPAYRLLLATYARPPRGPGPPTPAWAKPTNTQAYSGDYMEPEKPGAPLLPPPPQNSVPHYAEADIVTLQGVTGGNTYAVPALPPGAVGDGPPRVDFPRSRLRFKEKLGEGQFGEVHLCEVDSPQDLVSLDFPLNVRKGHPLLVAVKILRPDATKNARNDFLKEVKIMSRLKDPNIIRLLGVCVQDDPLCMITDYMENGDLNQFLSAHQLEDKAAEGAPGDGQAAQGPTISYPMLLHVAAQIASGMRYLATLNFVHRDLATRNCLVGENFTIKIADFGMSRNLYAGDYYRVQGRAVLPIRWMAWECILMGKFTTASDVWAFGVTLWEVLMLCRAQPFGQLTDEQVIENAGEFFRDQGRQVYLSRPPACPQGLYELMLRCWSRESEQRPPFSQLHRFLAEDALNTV
The target in data set [9] is T1, Discoidin domain-containing receptor 2 (Homo sapiens, UniProt Q16832).
T1 sequence (Q16832 whole entry): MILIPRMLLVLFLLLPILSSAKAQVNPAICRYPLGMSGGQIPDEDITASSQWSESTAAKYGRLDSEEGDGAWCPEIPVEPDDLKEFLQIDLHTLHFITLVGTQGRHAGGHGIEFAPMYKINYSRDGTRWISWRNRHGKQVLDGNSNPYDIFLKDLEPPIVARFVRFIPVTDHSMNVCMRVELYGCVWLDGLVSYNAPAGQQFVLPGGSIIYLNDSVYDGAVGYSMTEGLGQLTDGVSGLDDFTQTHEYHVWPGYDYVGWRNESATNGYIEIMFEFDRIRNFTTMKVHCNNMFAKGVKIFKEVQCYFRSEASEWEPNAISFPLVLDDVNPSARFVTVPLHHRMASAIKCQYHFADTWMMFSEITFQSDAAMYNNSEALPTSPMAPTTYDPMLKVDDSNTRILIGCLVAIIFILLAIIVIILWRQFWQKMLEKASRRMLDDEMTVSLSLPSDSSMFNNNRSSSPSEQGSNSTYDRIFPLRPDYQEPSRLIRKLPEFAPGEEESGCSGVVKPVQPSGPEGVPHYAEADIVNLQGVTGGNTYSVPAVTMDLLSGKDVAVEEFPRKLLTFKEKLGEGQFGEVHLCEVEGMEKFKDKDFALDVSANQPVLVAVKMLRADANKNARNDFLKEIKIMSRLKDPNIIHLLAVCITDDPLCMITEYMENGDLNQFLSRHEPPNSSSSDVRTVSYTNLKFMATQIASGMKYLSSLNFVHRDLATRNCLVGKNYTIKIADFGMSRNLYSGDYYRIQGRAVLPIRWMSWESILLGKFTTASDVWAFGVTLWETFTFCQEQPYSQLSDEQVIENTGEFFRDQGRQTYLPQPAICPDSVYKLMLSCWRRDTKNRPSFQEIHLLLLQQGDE
Description: Inhibition of human wild type partial length DDR2 (V555 to E855 residues) expressed in mammalian expression system by Kinomescan method.

Data set [10] has as its target Ephrin type-A receptor 7 (Homo sapiens, UniProt Q15375). Nature of the data set: Inhibition of human wild type partial length EphA7 (Y608 to S912 residues) expressed in bacterial expression system by Kinomescan method.
Data set [11] addresses Angiopoietin-1 receptor (Homo sapiens, UniProt Q02763). Description: Inhibition human wild type partial length Tie2 (N804 to T1112 residues) expressed in bacterial expression system by Kinomescan method.
Data set [12] in a line: AUC (0 to t) in Sprague-Dawley rat at 10 mg/kg, po measured upto 24 hrs by LC-MS/MS analysis. The arrangement: time < 24 hrs, dose 10 mg/kg, route po. The class given is ADME, organism-based. Particulars: in vivo.
A short description of data set [13]: Cmax in Sprague-Dawley rat at 10 mg/kg, po measured upto 24 hrs by LC-MS/MS analysis. The class given is ADME, organism-based. Also noted: dose 10 mg/kg, time < 24 hrs, route po. Conditions: in vivo.
The subject of data set [14] is BaF3. Nature of the data set: Antiproliferative activity against mouse BaF3 cells expressing ETV6 fused TRKC G623E mutant incubated for 3 days by CCK8 assay. Conditions: BaF3, 72 h.
Data set [15] has as its system BaF3. Description: Antiproliferative activity against mouse BaF3 cells expressing CD74 fused TRKA G667A mutant incubated for 3 days by CCK8 assay. Particulars: BaF3, 72 h.
For data set [16], the system named is BaF3. Nature of the data set: Antiproliferative activity against mouse BaF3 cells expressing CD74 fused TRKA G667S mutant incubated for 3 days by CCK8 assay. Particulars: BaF3, 72 h.
The test system of data set [17] is BaF3. Description: Antiproliferative activity against mouse BaF3 cells expressing ETV6 fused TRKC G696C mutant incubated for 3 days by CCK8 assay. Particulars: BaF3, 72 h.
In data set [18] the test system is BaF3. Description: Antiproliferative activity against mouse BaF3 cells expressing ETV6 fused TRKC G696A mutant incubated for 3 days by CCK8 assay. Conditions: BaF3, 72 h.
Data set [19] deals with BaF3. Nature of the data set: Antiproliferative activity against mouse BaF3 cells expressing ETV6 fused TRKC G623R mutant incubated for 3 days by CCK8 assay. Particulars: BaF3, 72 h.
For data set [20], the system named is BaF3. Description: Antiproliferative activity against mouse BaF3 cells expressing ETV6 fused TRKC V573M mutant incubated for 3 days by CCK8 assay. Particulars: BaF3, 72 h.
Data set [21] deals with BaF3. Description: Antiproliferative activity against mouse BaF3 cells expressing ETV6 fused TRKC G696S mutant incubated for 3 days by CCK8 assay. Conditions: BaF3, 72 h.
Data set [22] can be described thus: Antiproliferative activity against human KM12-Luc cells assessed as inhibition of cell growth incubated for 3 days by CCK8 assay. The class given is functional, cell-based. Particulars: 72 h.
Data set [23] relates to BaF3. Description: Antiproliferative activity against mouse BaF3 cells assessed as inhibition of cell growth incubated for 3 days by CCK8 assay. The format is functional, cell-based. Conditions: BaF3, 72 h.

Structures are written as SMILES. Where only a bound is given, the exact number is not on record here.

High affinity nerve growth factor receptor (Homo sapiens, UniProt P04629), sequence (P04629 whole entry, the tested form may be a part): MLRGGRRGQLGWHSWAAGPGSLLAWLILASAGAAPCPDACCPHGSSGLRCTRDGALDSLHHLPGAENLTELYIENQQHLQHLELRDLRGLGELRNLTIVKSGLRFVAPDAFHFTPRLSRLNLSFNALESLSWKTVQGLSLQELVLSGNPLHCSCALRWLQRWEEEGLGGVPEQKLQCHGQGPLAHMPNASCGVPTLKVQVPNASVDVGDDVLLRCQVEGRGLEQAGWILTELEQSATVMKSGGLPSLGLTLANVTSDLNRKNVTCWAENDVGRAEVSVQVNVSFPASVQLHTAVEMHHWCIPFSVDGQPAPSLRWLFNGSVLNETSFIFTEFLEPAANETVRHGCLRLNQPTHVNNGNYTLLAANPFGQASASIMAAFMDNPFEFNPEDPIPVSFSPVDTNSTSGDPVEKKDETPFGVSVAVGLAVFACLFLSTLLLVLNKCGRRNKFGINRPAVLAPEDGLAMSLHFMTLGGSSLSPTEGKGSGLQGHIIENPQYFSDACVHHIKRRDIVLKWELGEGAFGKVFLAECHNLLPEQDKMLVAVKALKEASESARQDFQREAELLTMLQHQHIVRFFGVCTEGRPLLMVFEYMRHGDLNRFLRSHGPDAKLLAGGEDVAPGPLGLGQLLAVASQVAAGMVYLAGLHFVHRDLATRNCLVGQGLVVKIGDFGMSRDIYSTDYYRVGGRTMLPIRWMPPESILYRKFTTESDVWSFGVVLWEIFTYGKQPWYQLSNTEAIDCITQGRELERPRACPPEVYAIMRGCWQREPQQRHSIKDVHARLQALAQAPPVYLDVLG
Ephrin type-A receptor 7, sequence (Q15375 whole entry, the tested form may be a part): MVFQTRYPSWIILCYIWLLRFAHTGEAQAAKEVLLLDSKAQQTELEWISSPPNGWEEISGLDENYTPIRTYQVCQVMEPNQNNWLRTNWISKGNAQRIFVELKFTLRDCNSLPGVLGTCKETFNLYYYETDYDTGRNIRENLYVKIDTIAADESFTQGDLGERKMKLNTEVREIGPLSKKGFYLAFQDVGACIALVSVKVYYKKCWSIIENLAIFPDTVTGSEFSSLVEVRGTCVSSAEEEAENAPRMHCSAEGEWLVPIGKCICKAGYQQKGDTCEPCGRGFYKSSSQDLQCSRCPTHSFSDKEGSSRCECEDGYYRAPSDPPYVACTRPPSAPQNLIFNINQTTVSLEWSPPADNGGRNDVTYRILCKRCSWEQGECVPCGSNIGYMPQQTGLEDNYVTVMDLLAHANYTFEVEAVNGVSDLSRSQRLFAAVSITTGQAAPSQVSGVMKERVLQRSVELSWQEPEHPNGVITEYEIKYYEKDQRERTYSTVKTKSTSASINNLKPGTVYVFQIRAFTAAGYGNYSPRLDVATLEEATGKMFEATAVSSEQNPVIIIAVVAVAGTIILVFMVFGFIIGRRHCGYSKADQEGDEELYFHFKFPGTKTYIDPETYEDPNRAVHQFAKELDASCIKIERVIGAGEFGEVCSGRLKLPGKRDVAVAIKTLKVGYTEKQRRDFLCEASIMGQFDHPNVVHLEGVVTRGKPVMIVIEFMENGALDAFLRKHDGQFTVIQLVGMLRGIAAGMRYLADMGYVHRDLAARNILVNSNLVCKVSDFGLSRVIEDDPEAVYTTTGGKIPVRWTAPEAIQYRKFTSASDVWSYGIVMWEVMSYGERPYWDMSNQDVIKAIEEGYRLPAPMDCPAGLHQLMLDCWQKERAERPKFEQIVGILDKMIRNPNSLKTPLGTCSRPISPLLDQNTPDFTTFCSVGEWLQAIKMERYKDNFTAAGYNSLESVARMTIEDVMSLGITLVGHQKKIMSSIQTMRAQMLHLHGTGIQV
Angiopoietin-1 receptor, sequence (Q02763 whole entry, the tested form may be a part): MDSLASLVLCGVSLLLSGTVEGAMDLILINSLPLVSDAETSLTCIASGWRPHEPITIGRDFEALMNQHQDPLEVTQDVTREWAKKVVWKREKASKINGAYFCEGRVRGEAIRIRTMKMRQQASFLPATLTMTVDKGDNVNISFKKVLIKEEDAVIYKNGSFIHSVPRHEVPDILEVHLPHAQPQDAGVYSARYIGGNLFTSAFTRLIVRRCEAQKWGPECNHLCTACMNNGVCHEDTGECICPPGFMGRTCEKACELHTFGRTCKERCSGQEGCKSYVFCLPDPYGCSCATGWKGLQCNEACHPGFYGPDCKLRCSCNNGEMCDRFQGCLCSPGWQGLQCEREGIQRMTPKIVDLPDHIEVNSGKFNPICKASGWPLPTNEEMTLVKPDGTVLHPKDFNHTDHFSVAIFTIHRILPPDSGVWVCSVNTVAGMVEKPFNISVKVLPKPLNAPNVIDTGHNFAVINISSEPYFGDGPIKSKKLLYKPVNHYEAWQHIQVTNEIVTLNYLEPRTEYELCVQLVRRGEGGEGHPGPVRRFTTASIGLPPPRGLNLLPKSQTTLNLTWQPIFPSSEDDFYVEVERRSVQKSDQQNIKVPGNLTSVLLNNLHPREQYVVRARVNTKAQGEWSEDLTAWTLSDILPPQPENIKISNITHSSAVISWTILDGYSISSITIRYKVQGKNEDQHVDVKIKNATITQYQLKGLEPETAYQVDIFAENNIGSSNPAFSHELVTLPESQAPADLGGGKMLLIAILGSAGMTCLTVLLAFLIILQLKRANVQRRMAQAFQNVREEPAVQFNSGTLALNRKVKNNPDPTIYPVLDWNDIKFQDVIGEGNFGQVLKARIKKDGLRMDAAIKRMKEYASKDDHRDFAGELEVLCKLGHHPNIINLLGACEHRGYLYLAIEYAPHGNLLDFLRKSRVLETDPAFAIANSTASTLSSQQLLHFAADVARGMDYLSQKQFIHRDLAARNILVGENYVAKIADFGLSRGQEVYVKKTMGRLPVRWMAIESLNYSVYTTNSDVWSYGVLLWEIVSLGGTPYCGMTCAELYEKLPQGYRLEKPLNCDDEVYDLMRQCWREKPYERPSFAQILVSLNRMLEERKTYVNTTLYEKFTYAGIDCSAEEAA

By IC50 is commonly meant the midpoint of a concentration-inhibition curve. For `Cc1c2cc(cc1C(=O)Nc1cc(CN3CCN(C)CC3)cc(C(F)(F)F)c1)OCCCCC(=O)NCCN(C)c1ccc3ncc(n3n1)C#C2`, the IC50 in [1] worked out at 7.8 nM; in data set [2], 2.7 nM; in data set [3] it was 80.6 nM; in data set [4], 140 nM; in data set [5], 180 nM; in [6] it was 35 nM. Also, the IC50 in data set [7] was 520 nM.

As usually defined, the AUC(0-t) is the area under the concentration-time curve up to a stated or last time point. What is called Cmax is the maximum level reached in the sampled fluid or tissue. Consider `Cc1cn(-c2cc(NC(=O)c3cc4cc(c3C)C#Cc3cnc5ccc(nn35)N(C)CCNC(=O)CCCCO4)cc(C(F)(F)F)c2)cn1`, for which the IC50 in data set [8] stood at 26.4 nM; in [9], 313 nM; in data set [10], 162 nM; in data set [11], 217 nM. The compound also came in with an AUC(0-t) at 24 h in data set [12] of 51.6 ng·h/mL. This compound yielded a Cmax in data set [13] of 19.1 ng/mL.

In the case of `O=C(Nc1cnn2ccc(N3CCC[C@@H]3c3cc(F)ccc3F)nc12)N1CC[C@H](O)C1` [LAROTRECTINIB], the half-maximal inhibitory concentration (IC50) is 96 nM in data set [14]; 9 nM in data set [4]; 7 nM in [5]; 10.1 nM in [15]; 38.2 nM in [16]; 332 nM in data set [17]. The 50% inhibitory concentration (IC50) was 14.8 nM in data set [18]; greater than 1000 nM in data set [19]; 173 nM in data set [20]; 110 nM in [6]; 1550 nM in data set [7].

With `C[C@@H]1CCc2ncc(F)cc2[C@H]2CCCN2c2ccn3ncc(c3n2)C(=O)N1` [SELITRECTINIB], the concentration for half-maximal inhibition (IC50) in [14] came to 5.7 nM; in data set [15] it was 3.2 nM; in data set [16], 10.5 nM; in data set [17], 28.2 nM; in [18] it was 2.4 nM; in data set [21], 8.2 nM. The 50% inhibitory concentration (IC50) is 8.5 nM in [19]; 10.7 nM in data set [20]; 2.3 nM in [22]; greater than 10000 nM in data set [23]; 41 nM in data set [6].
